Seven compounds from PMC3489029 (Journal of the American Chemical Society, 2012) can be followed below.

Assay [1] deals with cell wall binding domain of the endolysin PlyL (Bacillus anthracis, UniProt A0A6H3AMF3). The assay can be described thus: biochemical. The arrangement: species or system Bacillus anthracis bacteriophage.
In assay [2] the target is cell wall binding domain of the endolysin PlyG (Bacillus phage Gamma, UniProt Q8LTE6). The assay can be described thus: biochemical. Set-up: species or system Bacillus anthracis bacteriophage.
Sequence of cell wall binding domain of the endolysin PlyG (Q8LTE6 166-233 limits assumed): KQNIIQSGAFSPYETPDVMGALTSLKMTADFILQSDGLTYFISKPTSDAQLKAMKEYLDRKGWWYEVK

Sequence of cell wall binding domain of the endolysin PlyL (A0A6H3AMF3 160-234 limits assumed): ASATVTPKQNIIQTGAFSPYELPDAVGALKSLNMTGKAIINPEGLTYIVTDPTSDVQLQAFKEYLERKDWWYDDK

As a reminder, the Kd is the free concentration of one partner at which half of the binding sites on the other are occupied at equilibrium, for simple one-to-one binding. Consider `CC(=O)N[C@@H]1[C@H](O[C@H]2[C@H](O[C@H]3O[C@H](CO)[C@H](O)[C@H](O)[C@H]3O)[C@@H](NC(C)=O)[C@H](OCCCCCN)O[C@@H]2CO)O[C@H](CO)[C@@H](O[C@H]2O[C@H](CO)[C@@H](O[C@@H]3O[C@H](CO)[C@H](O)[C@H](O)[C@H]3O)[C@H](O[C@H]3O[C@H](CO)[C@H](O)[C@H](O)[C@H]3O)[C@H]2NC(C)=O)[C@@H]1O` [Compound 1], for which, in assay [1], binding was put at a Kd of 23 ± 2 µM and the “fold reduced affinity compared to tetrasaccharide 3” value turned out to be 10 fold. Also, the Kd in assay [2] was 23.3 ± 0.5 µM.

Regarding `CC(=O)N[C@@H]1[C@H](O[C@H]2[C@H](O)[C@@H](NC(C)=O)[C@H](OCCCCCN)O[C@@H]2CO)O[C@H](CO)[C@@H](O[C@H]2O[C@H](CO)[C@@H](O)[C@H](O)[C@H]2NC(C)=O)[C@@H]1O` [Compound 2], the dissociation constant Kd in assay [1] is 13.5 µM; in assay [2] it was 8.6 ± 0.4 µM.

On to `CC(=O)N[C@@H]1[C@H](O[C@H]2[C@H](O)[C@@H](NC(C)=O)[C@H](OCCCCCN)O[C@@H]2CO)O[C@H](CO)[C@@H](O[C@H]2O[C@H](CO)[C@@H](O[C@@H]3O[C@H](CO)[C@H](O)[C@H](O)[C@H]3O)[C@H](O)[C@H]2NC(C)=O)[C@@H]1O` [Compound 3], for which, in assay [1], the Kd turned out to be 1.1 µM and the “binding to PlyL in words” value was “exceptional high affinity”. In assay [2], this compound registered a Kd of 2.1 ± 1.1 µM.

With `CC(=O)N[C@@H]1[C@H](O[C@H]2[C@H](O)[C@@H](NC(C)=O)[C@H](OCCCCCN)O[C@@H]2CO)O[C@H](CO)[C@@H](O[C@H]2O[C@H](CO)[C@@H](O)[C@H](O[C@H]3O[C@H](CO)[C@H](O)[C@H](O)[C@H]3O)[C@H]2NC(C)=O)[C@@H]1O` [Compound 4], in assay [1], the affinity, expressed as Kd, was 153 ± 10 µM and the “binding to PlyL in words” value is “complexed poorly with the protein”. In assay [2], this compound showed a Kd of 136 ± 7 µM.

Regarding `CC(=O)N[C@@H]1[C@H](O[C@H]2[C@H](O[C@H]3O[C@H](CO)[C@H](O)[C@H](O)[C@H]3O)[C@@H](NC(C)=O)[C@H](OCCCCCN)O[C@@H]2CO)O[C@H](CO)[C@@H](O[C@H]2O[C@H](CO)[C@@H](O)[C@H](O)[C@H]2NC(C)=O)[C@@H]1O` [Compound 5], the figures for the Kd in assay [1] and in assay [2] were 6.2 ± 2 µM and 4.1 ± 0.5 µM, respectively.

For `CC(=O)N[C@@H]1[C@H](O[C@H]2[C@H](O)[C@@H](NC(C)=O)[C@H](OCCCCCN)O[C@@H]2CO)O[C@H](CO)[C@@H](O)[C@@H]1O` [Compound 6], the results for the Kd in assay [1] and in assay [2] were 110 ± 9 µM and 49 ± 2 µM, respectively.

Consider `CC(=O)N[C@@H]1[C@H](O[C@H]2[C@H](O)[C@@H](NC(C)=O)[C@H](OCCCCCN)O[C@@H]2CO)O[C@H](CO)[C@@H](O[C@H]2O[C@H](CO)[C@H](O)[C@H](O)[C@H]2NC(C)=O)[C@@H]1O` [Compound 7], for which the results for the Kd in assay [1] and in assay [2] were 43 ± 11 µM and 19.5 ± 7.5 µM, respectively.
